ChEMBL document CHEMBL4610123, “Structure-Based Drug Discovery of N-((R)-3-(7-Methyl-1H-indazol-5-yl)-1-oxo-1-(((S)-1-oxo-3-(piperidin-4-yl)-1-(4-(pyridin-4-yl)piperazin-1-yl)propan-2-yl)amino)propan-2-yl)-2'-oxo-1',2'-dihydrospiro[piperidine-4,4'-pyrido[2,3-d][1,3]oxazine]-1-carboxamide (HTL22562): A Calcitonin Gene-Related …” (J Med Chem, 2020)
Converted amounts (≈) assume the structure as drawn.

Tests used:
[1] = Half life in cynomolgus monkey hepatocytes; type: ADME, cell-based, Macaca fascicularis, Hepatocyte
Cytochrome P450 2C9 = Cytochrome P450 2C9 (Homo sapiens, UniProt P11712); assay: Inhibition of CYP2C9 (unknown origin); type: ADME
[2] = target: T1, Mas-related G-protein coupled receptor member X2 (Homo sapiens) (UniProt Q96LB1); assay: Agonist activity at MRGPX2 (unknown origin) at 10 uM relative to control
T1 sequence (whole entry): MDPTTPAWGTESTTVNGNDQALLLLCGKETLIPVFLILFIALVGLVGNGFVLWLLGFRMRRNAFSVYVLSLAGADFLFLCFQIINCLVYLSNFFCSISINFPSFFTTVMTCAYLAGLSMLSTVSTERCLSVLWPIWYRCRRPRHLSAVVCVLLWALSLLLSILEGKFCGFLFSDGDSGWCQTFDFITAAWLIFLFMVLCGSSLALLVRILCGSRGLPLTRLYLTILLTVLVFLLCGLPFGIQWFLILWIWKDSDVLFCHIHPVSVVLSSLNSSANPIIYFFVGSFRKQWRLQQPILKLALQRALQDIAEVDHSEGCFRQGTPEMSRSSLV

[3] = AUC (infinity) in rat at 1 mg/kg, sc; type: ADME, organism-based; set-up: dose 1 mg/kg, route subcutaneous, time infinity; conditions: in vivo
[4] = Genotoxicity in Salmonella typhimurium TA1537 by mini AMES test; type: toxicity; conditions: salmonella enterica subsp. enterica serovar typhimurium
[5] = target: T2, Muscarinic acetylcholine receptor M2 (Homo sapiens) (UniProt P08172); assay: Antagonist activity at CHRM2 (unknown origin) at 10 uM relative to control
T2 sequence (whole entry): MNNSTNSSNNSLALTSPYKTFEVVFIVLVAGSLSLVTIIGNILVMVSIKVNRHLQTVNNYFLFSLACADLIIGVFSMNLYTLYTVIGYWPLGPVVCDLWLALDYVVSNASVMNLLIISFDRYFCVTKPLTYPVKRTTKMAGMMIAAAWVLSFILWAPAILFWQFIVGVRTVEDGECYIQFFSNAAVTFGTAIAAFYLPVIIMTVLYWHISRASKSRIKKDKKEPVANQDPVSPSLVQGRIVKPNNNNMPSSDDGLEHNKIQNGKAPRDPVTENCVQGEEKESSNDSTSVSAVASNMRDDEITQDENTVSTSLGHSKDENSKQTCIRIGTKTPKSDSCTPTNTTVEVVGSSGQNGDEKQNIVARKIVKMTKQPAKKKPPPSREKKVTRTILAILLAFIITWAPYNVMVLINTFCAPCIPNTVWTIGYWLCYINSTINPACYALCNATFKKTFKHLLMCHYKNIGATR

[6] = Half life in dog at 0.5 mg/kg, iv; type: ADME, organism-based, Canis lupus familiaris; conditions: in vivo
[7] = Genotoxicity in Salmonella typhimurium TA98 by mini AMES test; type: toxicity; conditions: salmonella enterica subsp. enterica serovar typhimurium
Homo sapiens [8] = organism: Homo sapiens; assay: Selectivity ratio of antagonist activity at amylin-1 receptor (unknown origin) to antagonist activity at human CGRP receptor in human SK-N-MC cells; type: cell-based
Homo sapiens [9] = organism: Homo sapiens; assay: Selectivity ratio of antagonist activity at adrenomedullin-1 receptor (unknown origin) to antagonist activity at human CGRP receptor in human SK-N-MC cells; type: cell-based
[10] = Protein binding in rat plasma by high-throughput dialysis method; type: ADME, cell-free; conditions: read-out: PPB (converted)
[11] = Oral bioavailability in rat at 1 mg/kg; type: ADME, organism-based; conditions: in vivo
[12] = target: Calcitonin-gene-related peptide receptor, CALCRL/RAMP1 (Homo sapiens, UniProt O60894+Q16602); assay: Displacement of [3H]telcagepant from recombinant human CLR/RAMP1 expressed in Sf21 insect cell membranes measured after 60 mins by microbeta scintillation counting method
[13] = Half life in cynomolgus monkey at 0.5 mg/kg, iv; type: ADME, organism-based, Macaca fascicularis; conditions: in vivo
[14] = Stability of the compound in pH 8 solution at 50 degC assessed as loss of purity after 1 week; type: physicochemical; conditions: read-out: Drug degradation
Cytochrome P450 2C19 = Cytochrome P450 2C19 (Homo sapiens, UniProt P33261); assay: Inhibition of CYP2C19 (unknown origin); type: ADME
[15] = Half life in human hepatocytes; type: ADME, cell-based, Hepatocyte
[16] = target: T3, AHR (aryl hydrocarbon receptor) (Homo sapiens, UniProt P35869); assay: Transactivation of AHR (unknown origin) assessed as induction of CYP450 at 3 uM relative to control; type: ADME; conditions: read-out: FC
T3 sequence (P35869 whole entry): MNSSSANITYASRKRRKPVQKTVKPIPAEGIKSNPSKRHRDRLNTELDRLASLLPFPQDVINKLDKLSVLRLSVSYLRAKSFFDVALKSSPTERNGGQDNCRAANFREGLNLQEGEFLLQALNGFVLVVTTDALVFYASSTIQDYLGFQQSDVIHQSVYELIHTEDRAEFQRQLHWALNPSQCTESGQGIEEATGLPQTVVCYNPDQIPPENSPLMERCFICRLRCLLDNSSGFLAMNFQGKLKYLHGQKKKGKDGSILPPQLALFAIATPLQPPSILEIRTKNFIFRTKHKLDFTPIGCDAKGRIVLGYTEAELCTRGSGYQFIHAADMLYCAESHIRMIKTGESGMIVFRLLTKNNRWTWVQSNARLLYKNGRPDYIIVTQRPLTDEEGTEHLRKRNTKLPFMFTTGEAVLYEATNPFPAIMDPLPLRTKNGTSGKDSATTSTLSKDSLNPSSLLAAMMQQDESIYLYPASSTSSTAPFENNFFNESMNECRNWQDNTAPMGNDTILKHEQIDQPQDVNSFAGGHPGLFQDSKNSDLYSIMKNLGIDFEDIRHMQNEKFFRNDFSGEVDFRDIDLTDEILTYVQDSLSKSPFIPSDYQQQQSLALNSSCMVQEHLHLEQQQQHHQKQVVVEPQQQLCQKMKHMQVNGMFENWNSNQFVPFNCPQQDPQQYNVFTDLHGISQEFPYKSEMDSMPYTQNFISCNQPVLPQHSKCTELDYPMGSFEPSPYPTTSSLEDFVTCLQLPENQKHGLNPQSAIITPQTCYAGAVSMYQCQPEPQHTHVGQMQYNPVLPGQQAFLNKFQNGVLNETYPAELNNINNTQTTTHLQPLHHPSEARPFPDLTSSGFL

[17] = AUC (infinity) in cynomolgus monkey at 0.013 mg/kg, sc; type: ADME, organism-based, Macaca fascicularis; set-up: dose 0.013 mg/kg, route subcutaneous, time infinity; conditions: in vivo
[18] = Solubility of the compound at pH 8.2 using amorphous form of sample; type: physicochemical; conditions: buffer
[19] = AUC (infinity) in cynomolgus monkey at 0.5 mg/kg, sc; type: ADME, organism-based, Macaca fascicularis; set-up: dose 0.5 mg/kg, route subcutaneous, time infinity; conditions: in vivo
Cytochrome P450 3A4 = Cytochrome P450 3A4 (Homo sapiens, UniProt P08684); assay: Inhibition of CYP3A4 (unknown origin); type: ADME
[20] = Half life in rat at 1 mg/kg, sc; type: ADME, organism-based; conditions: in vivo
[21] = Half life in cynomolgus monkey at 0.5 mg/kg, sc; type: ADME, organism-based, Macaca fascicularis; conditions: in vivo
[22] = Lipophilicity, log D of the compound at pH 7.4; type: physicochemical; conditions: buffer

Sequence of Cytochrome P450 2C19 (P33261 whole entry): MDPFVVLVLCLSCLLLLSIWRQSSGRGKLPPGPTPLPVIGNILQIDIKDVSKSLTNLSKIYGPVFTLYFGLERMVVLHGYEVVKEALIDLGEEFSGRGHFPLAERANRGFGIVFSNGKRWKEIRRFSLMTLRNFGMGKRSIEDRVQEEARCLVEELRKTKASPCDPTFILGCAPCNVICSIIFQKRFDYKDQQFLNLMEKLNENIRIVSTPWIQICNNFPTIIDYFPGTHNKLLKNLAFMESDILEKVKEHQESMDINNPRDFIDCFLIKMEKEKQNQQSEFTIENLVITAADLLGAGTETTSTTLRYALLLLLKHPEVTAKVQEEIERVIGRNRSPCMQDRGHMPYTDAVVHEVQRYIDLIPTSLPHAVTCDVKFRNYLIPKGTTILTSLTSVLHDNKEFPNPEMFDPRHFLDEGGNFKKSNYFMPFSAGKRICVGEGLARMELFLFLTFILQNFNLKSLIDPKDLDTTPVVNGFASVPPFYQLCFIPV
Sequence of Calcitonin-gene-related peptide receptor, CALCRL/RAMP1 (O60894 whole entry): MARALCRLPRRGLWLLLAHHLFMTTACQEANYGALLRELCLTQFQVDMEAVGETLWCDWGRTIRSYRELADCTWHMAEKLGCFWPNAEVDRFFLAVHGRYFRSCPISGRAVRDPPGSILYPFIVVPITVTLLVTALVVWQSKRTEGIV
Sequence of Calcitonin-gene-related peptide receptor, CALCRL/RAMP1 (Q16602 whole entry): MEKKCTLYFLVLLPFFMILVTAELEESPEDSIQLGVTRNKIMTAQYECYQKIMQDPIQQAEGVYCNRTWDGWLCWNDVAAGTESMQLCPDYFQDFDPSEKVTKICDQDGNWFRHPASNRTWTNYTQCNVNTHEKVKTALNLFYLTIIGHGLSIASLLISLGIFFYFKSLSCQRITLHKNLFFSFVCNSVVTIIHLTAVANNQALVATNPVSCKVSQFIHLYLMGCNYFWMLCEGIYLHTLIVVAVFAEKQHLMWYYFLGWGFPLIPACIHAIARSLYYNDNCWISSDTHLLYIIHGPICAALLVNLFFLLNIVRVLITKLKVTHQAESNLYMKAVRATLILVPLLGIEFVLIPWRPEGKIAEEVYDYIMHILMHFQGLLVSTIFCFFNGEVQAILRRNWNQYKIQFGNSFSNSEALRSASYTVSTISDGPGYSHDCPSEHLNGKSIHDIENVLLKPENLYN
Sequence of Cytochrome P450 3A4 (P08684 whole entry): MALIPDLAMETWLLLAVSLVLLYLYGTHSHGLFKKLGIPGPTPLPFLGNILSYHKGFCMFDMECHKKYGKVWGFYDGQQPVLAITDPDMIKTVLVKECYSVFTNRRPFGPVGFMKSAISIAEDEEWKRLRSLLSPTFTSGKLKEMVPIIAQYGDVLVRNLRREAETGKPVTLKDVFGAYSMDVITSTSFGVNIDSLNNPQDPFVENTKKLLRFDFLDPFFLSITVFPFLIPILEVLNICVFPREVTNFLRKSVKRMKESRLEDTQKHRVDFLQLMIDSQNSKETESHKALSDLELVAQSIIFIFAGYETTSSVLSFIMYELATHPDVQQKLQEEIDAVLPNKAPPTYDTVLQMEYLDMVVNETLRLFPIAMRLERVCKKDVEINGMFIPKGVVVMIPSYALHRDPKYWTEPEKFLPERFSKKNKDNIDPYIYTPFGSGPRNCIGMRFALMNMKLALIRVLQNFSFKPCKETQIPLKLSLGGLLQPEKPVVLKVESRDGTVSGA
Sequence of Cytochrome P450 2C9 (P11712 whole entry): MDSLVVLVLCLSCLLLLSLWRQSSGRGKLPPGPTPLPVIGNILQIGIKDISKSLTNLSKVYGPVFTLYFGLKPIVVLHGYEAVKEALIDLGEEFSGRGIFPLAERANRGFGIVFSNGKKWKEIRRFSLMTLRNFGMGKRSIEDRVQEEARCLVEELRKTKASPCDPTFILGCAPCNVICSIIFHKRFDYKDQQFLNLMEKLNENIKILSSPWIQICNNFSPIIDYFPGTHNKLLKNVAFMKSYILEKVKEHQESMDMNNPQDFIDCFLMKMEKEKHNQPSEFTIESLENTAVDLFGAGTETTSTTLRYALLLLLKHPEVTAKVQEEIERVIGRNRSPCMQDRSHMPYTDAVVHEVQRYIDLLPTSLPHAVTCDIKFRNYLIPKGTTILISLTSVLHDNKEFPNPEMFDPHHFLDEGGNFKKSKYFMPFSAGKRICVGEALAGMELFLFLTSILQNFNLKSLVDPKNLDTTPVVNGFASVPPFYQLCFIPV

With Cc1cc(C[C@@H](NC(=O)N2CCC3(CC2)OC(=O)Nc2ncccc23)C(=O)N[C@@H](CC2CCNCC2)C(=O)N2CCN(c3ccncc3)CC2)cc2cn[nH]c12 [HTL-0022562] the half-life [1] was greater than 300 min, the IC50 (Cytochrome P450 2C9) was greater than 50.1 µM and the Activity [2] was 80%. For the same compound, the AUC(0-inf) [3] was 1280 ng·h/mL, the Activity [4] was “Non-Toxic” and the inhibition [5] was 65%. The half-life [6] was 72 min, the Activity [7] was “Non-Toxic” and the Selectivity ratio (Homo sapiens [8]) was greater than 8000. The Selectivity ratio (Homo sapiens [9]) was greater than 8000, the fraction unbound [10] was 0.59 and the bioavailability [11] was 123%. The Ki [12] was 0.0316 nM, the half-life [13] was 318 min and the degraded at 168 h [14] was 4.5%. It also gave an IC50 (Cytochrome P450 2C19) greater than 50.1 µM, a half-life [15] greater than 300 min and a fold induction at 3 µM [16] of 1.4. It also gave an AUC(0-inf) [17] of 81 ng·h/mL, a solubility [18] of 9000 µg/mL (≈ 11.8 mM) and an AUC(0-inf) [19] of 4210 ng·h/mL. For the same compound, the IC50 (Cytochrome P450 3A4) was greater than 50.1 µM, the half-life [20] was 156 min and the half-life [21] was 216 min. For the same compound, the logD [22] was -0.4.
